Source: patent US12378224B2 (Dong-A Socio Holdings Co., Ltd., priority 2016, dated 2025)

Tests used:
[1] = molecular target: BCR fusion to kinase domain of MerTK (Ba/F3-MerTK) (Homo sapiens, UniProt Q12866); assay: In Cell TAM Kinase Assay Using BaF3 Cellular System; format: cell-based, murine; settings: Ba/F3 BCR-kinase fusion proliferation, 72 hours, Cell Titer Glo; kinase not given; read-out: IC50
In short: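 Ba/F3 murine pro-B cells expressing BCR–MerTK kinase-domain fusion (IL-3 independent), seeded at 1,000 cells/well onto compound and grown 72 h. Viability read by CellTiter-Glo 2.0 luminescence after 30 min at room temperature.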

human MER (528-end) = human MER (528-end) (Homo sapiens (Human), UniProt Q12866); assay: HTRF Kinase Activity Biochemical Assay (KinEASE-TK); settings: 10 uM ATP
In short: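 Activity read-out is the HTRF ratio (665 nm over 620 nm emission, ×10,000; excitation 340 nm) after 1 h detection with 0.375 nM Eu3+-cryptate anti-TK antibody plus 0.062 uM SA-XL665. Preceding kinase step: human MER (528-end), biotinylated TK substrate, 1 h, room temperature.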

Chain of BCR fusion to kinase domain of MerTK (Ba/F3-MerTK) (Q12866 21-999 limits assumed, change not shown): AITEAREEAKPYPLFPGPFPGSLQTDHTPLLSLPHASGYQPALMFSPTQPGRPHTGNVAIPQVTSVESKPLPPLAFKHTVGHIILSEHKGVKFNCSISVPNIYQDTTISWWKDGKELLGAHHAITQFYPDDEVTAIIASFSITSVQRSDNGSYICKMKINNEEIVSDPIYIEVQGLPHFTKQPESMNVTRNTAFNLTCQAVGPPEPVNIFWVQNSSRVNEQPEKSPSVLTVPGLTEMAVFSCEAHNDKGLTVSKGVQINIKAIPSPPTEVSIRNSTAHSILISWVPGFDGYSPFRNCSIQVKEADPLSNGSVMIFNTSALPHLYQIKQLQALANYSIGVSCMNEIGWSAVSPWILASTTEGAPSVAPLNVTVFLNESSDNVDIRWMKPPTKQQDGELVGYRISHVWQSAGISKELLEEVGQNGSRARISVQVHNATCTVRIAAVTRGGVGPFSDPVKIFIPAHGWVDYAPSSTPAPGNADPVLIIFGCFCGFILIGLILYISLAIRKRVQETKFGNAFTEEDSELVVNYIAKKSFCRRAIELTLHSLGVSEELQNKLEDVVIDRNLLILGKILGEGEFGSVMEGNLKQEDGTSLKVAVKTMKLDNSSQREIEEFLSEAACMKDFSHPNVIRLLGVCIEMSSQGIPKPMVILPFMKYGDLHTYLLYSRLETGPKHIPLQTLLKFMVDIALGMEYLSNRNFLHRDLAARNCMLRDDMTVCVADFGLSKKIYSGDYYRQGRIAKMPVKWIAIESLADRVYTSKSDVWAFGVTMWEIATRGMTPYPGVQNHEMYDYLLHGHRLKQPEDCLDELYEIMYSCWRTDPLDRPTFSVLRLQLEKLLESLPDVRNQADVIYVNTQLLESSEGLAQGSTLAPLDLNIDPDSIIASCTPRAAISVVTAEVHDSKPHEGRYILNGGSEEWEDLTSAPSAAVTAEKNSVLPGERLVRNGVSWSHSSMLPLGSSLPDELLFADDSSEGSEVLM
Chain of human MER (528-end) (Q12866 528-999 limits assumed): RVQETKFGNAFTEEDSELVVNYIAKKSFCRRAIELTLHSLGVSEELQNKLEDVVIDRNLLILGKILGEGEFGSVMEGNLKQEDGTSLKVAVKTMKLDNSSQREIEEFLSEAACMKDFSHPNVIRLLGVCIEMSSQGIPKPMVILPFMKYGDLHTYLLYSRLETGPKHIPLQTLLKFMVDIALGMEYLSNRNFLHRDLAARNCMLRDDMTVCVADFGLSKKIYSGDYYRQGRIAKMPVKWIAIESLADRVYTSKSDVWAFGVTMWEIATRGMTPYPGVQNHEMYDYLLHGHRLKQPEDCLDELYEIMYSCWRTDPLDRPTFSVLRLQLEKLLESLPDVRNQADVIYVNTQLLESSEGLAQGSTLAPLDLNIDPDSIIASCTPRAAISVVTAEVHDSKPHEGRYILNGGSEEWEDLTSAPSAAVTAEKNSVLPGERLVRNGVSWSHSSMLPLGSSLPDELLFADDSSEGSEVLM

Structure (SMILES) | IC50 [1] [nM] | IC50 (human MER (528-end)) [nM]
Cn1cc(-c2cnc(N)c(C(=O)N[C@@H]3CCN(C(=O)c4ccc(-c5ccc(Oc6ccc(C(N)=O)cc6)cc5)cc4)C3)c2)cn1 [Example 788, (R)-2-amino-N-(1-(4′-(4-carbamoylphenoxy)-[1,1′-biphenyl]-4-carbonyl)pyrrolidin-3-yl)-5-(1-methyl-1H-pyrazol-4-yl)nicotinamide] | > 1000 | 10 to 100
CN1CCN(Cc2ccc(-c3ccc(C(=O)N4CC[C@@H](Nc5n[nH]c6ncc(-c7cnn(C)c7)cc56)C4)cc3)cc2)CC1 [Example 794, (R)-(3-((5-(1-methyl-1H-pyrazol-4-yl)-1H-pyrazolo[3,4-b]pyridin-3-yl)amino)pyrrolidin-1-yl)(4′-((4-methylpiperazin-1-yl)methyl)-[1,1′-biphenyl]-4-yl)methanone] | > 1000 | 10 to 100
Cn1cc(-c2cnc(N)c(C(=O)N[C@@H]3CCN(C(=O)c4ccc(-c5ccc(Oc6ccncc6)cc5)cc4)C3)c2)cn1 [Example 798, (R)-2-amino-5-(1-methyl-1H-pyrazol-4-yl)-N-(1-(4′-(pyridin-4-yloxy)-[1,1′-biphenyl]-4-carbonyl)pyrrolidin-3-yl)nicotinamide] | > 1000 | 10 to 100
Cn1cc(-c2cnc(N)c(C(=O)N[C@@H]3CCN(C(=O)c4ccc(-c5ccc(Oc6cccnc6)cc5)cc4)C3)c2)cn1 [Example 802, (R)-2-amino-5-(1-methyl-1H-pyrazol-4-yl)-N-(1-(4′-(pyridin-3-yloxy)-[1,1′-biphenyl]-4-carbonyl)pyrrolidin-3-yl)nicotinamide] | > 1000 | 100 to 1000
CN(c1ccc(-c2ccc(C(=O)N3CC[C@@H](NC(=O)c4cc(-c5cnn(C)c5)cnc4N)C3)cc2)cc1)c1ccc([N+](=O)[O-])cc1 [Example 803, (R)-2-amino-N-(1-(4′-(methyl(4-nitrophenyl)amino)-[1,1′-biphenyl]-4-carbonyl)pyrrolidin-3-yl)-5-(1-methyl-1H-pyrazol-4-yl)nicotinamide] | > 1000 | 100 to 1000
CN(c1ccc(-c2ccc(C(=O)N3CC[C@@H](NC(=O)c4cc(-c5cnn(C)c5)cnc4N)C3)cc2)cc1)c1ccc([N+](=O)[O-])cc1F [Example 804, (R)-2-amino-N-(1-(4′-((2-fluoro-4-nitrophenyl)(methyl)amino)-[1,1′-biphenyl]-4-carbonyl)pyrrolidin-3-yl)-5-(1-methyl-1H-pyrazol-4-yl)nicotinamide] | > 1000 | 100 to 1000
CN(c1ccc(-c2ccc(C(=O)N3CC[C@@H](NC(=O)c4cc(-c5cnn(C)c5)cnc4N)C3)cc2)cc1)c1ccc([N+](=O)[O-])cc1Cl [Example 806, (R)-2-amino-N-(1-(4′-((2-chloro-4-nitrophenyl)(methyl)amino)-[1,1′-biphenyl]-4-carbonyl)pyrrolidin-3-yl)-5-(1-methyl-1H-pyrazol-4-yl)nicotinamide] | > 1000 | > 1000
CN1CCC(Oc2ccc(-c3ccc(C(=O)N4CC[C@@H](NC(=O)c5cc(-c6cnn(C)c6)cnc5N)C4)cc3)cc2)CC1 [Example 809, (R)-2-amino-5-(1-methyl-1H-pyrazol-4-yl)-N-(1-(4′-((1-methylpiperidin-4-yl)oxy)-[1,1′-biphenyl]-4-carbonyl)pyrrolidin-3-yl)nicotinamide] | > 1000 | 10 to 100
Cn1cc(-c2cnc(N)c(C(=O)N[C@@H]3CCN(C(=O)c4ccc(-c5ccc(Oc6ccc(C=O)cc6)cc5)cc4)C3)c2)cn1 [Example 811, (R)-2-amino-N-(1-(4′-(4-formylphenoxy)-[1,1′-biphenyl]-4-carbonyl)pyrrolidin-3-yl)-5-(1-methyl-1H-pyrazol-4-yl)nicotinamide] | > 1000 | 10 to 100
Cn1cc(-c2cnc(N)c(C(=O)N[C@@H]3CCN(C(=O)c4ccc(-c5ccc(Oc6ccc(C(=O)O)cc6)cc5)cc4)C3)c2)cn1 [Example 812, (R)-4-((4′-(3-(2-amino-5-(1-methyl-1H-pyrazol-4-yl)nicotinamido)pyrrolidine-1-carbonyl)-[1,1′-biphenyl]-4-yl)oxy)benzoic acid] | > 1000 | 10 to 100
Cn1cc(-c2cnc(N)c(C(=O)N[C@@H]3CCN(C(=O)c4ccc5cc(NC6CCNCC6)ccc5c4)C3)c2)cn1 [Example 816, (R)-2-amino-5-(1-methyl-1H-pyrazol-4-yl)-N-(1-(6-(piperidin-4-ylamino)-2-naphthoyl)pyrrolidin-3-yl)nicotinamide] | > 1000 | 100 to 1000
Cn1cc(-c2cnc(N)c(C(=O)N[C@@H]3CCN(C(=O)c4ccc5cc(NC6CCN(CCO)CC6)ccc5c4)C3)c2)cn1 [Example 817, (R)-2-amino-N-(1-(6-((1-(2-hydroxyethyl)piperidin-4-yl)amino)-2-naphthoyl)pyrrolidin-3-yl)-5-(1-methyl-1H-pyrazol-4-yl)nicotinamide] | > 1000 | 100 to 1000
CN(c1ccc2cc(C(=O)N3CC[C@@H](NC(=O)c4cc(-c5cnn(C)c5)cnc4N)C3)ccc2c1)C1CCNCC1 [Example 818, (R)-2-amino-N-(1-(6-(methyl(piperidin-4-yl)amino)-2-naphthoyl)pyrrolidin-3-yl)-5-(1-methyl-1H-pyrazol-4-yl)nicotinamide] | > 1000 | 10 to 100
Cn1cc(-c2cnc(N)c(C(=O)N[C@@H]3CCN(C(=O)c4ccc(-c5ccc(CC6CCN(CCO)CC6)cc5)cc4)C3)c2)cn1 [Example 819, (R)-2-amino-N-(1-(4′-((1-(2-hydroxyethyl)piperidin-4-yl)methyl)-[1,1′-biphenyl]-4-carbonyl)pyrrolidin-3-yl)-5-(1-methyl-1H-pyrazol-4-yl)nicotinamide] | > 1000 | 10 to 100
CC(/C=C/c1ccc(C(=O)N2CC[C@@H](NC(=O)c3cc(-c4cnn(C)c4)cnc3N)C2)cc1)N1CCN(CCO)CC1 (stereo partly drawn) [Example 823, 2-amino-N-((3R)-1-(4-((E)-3-(4-(2-hydroxyethyl)piperazin-1-yl)but-1-en-1-yl)benzoyl)pyrrolidin-3-yl)-5-(1-methyl-1H-pyrazol-4-yl)nicotinamide] | > 1000 | 10 to 100

More lines, now with the values ahead:

IC50 [1] [nM] | IC50 (human MER (528-end)) [nM] | Structure (SMILES)
> 1000 | > 1000 | NC(=O)c1ccccc1-c1cnc(N)c(C(=O)N[C@@H]2CCN(C(=O)c3ccc(-c4ccc(F)cc4Cl)cc3)C2)c1 [Example 776, (R)-2-amino-5-(2-carbamoylphenyl)-N-(1-(2′-chloro-4′-fluoro-[1,1′-biphenyl]-4-carbonyl)pyrrolidin-3-yl)nicotinamide]
> 1000 | 100 to 1000 | Nc1ncc(-c2ccccc2O)cc1C(=O)N[C@@H]1CCN(C(=O)c2ccc(-c3ccc(F)cc3Cl)cc2)C1 [Example 778, (R)-2-amino-N-(1-(2′-chloro-4′-fluoro-[1,1′-biphenyl]-4-carbonyl)pyrrolidin-3-yl)-5-(2-hydroxyphenyl)nicotinamide]
> 1000 | 100 to 1000 | Nc1ccccc1-c1cnc(N)c(C(=O)N[C@@H]2CCN(C(=O)c3ccc(-c4ccc(F)cc4Cl)cc3)C2)n1 [Example 779, (R)-3-amino-6-(2-aminophenyl)-N-(1-(2′-chloro-4′-fluoro-[1,1′-biphenyl]-4-carbonyl)pyrrolidin-3-yl)pyrazine-2-carboxamide]
> 1000 | 10 to 100 | Nc1ncc(-c2ccc(C(=O)N3CCOCC3)c(Cl)c2)cc1C(=O)N[C@@H]1CCN(C(=O)c2ccc(-c3ccc(F)cc3Cl)cc2)C1 [Example 781, (R)-2-amino-N-(1-(2′-chloro-4′-fluoro-[1,1′-biphenyl]-4-carbonyl)pyrrolidin-3-yl)-5-(3-chloro-4-(morpholine-4-carbonyl)phenyl)nicotinamide]
> 1000 | > 1000 | Cn1cc(-c2cnc(N)c(C(=O)N[C@@H]3CCN(C(=O)c4ccc5cc(C(=O)N6CCN(CCO)CC6)ccc5c4)C3)c2)cn1 [Example 786, (R)-2-amino-N-(1-(6-(4-(2-hydroxyethyl)piperazine-1-carbonyl)-2-naphthoyl)pyrrolidin-3-yl)-5-(1-methyl-1H-pyrazol-4-yl)nicotinamide]
> 1000 | 10 to 100 | CN(C)C(=O)c1ccc(Oc2ccc(-c3ccc(C(=O)N4CC[C@@H](NC(=O)c5cc(-c6cnn(C)c6)cnc5N)C4)cc3)cc2)cc1 [Example 787, (R)-2-amino-N-(1-(4′-(4-(dimethylcarbamoyl)phenoxy)-[1,1′-biphenyl]-4-carbonyl)pyrrolidin-3-yl)-5-(1-methyl-1H-pyrazol-4-yl)nicotinamide]
500 to 1000 | 10 to 100 | Cn1cc(-c2cnc(N)c(C(=O)N[C@@H]3CCN(C(=O)c4ccc(-c5ccc(Oc6ccnc(Cl)c6)cc5)cc4)C3)c2)cn1 [Example 795, (R)-2-amino-N-(1-(4′-((2-chloropyridin-4-yl)oxy)-[1,1′-biphenyl]-4-carbonyl)pyrrolidin-3-yl)-5-(1-methyl-1H-pyrazol-4-yl)nicotinamide]
100 to 500 | 10 to 100 | Cn1cc(-c2cnc(N)c(C(=O)N[C@@H]3CCN(C(=O)c4ccc(-c5ccc(Oc6ccc(O)cc6)c(Cl)c5)cc4)C3)c2)cn1 [Example 808, (R)-2-amino-N-(1-(3′-chloro-4′-(4-hydroxyphenoxy)-[1,1′-biphenyl]-4-carbonyl)pyrrolidin-3-yl)-5-(1-methyl-1H-pyrazol-4-yl)nicotinamide]
100 to 500 | 10 to 100 | CN(c1ccc2cc(C(=O)N3CC[C@@H](NC(=O)c4cc(-c5cnn(C)c5)cnc4N)C3)ccc2c1)C1CCN(CCO)CC1 [Example 820, (R)-2-amino-N-(1-(6-((1-(2-hydroxyethyl)piperidin-4-yl)(methyl)amino)-2-naphthoyl)pyrrolidin-3-yl)-5-(1-methyl-1H-pyrazol-4-yl)nicotinamide]
